Assay results published in patent publication US5037812A, “Tumor cell growth-inhibiting pharmaceutical compositions containing phosphino-hydrocarbon-gold, silver or copper complexes” (priority 1986, dated 1991).
pIC50: −log10 of the molar value. Where “and” joins values, the source holds several entries; their conditions need not be identical. Identical values can stand only once. Like-named read-outs stand apart in the source and are kept apart here.

Legend:
P388 leukemia = assay: ip P388 leukemia mouse model; type: in vivo, mice (B6D2F1); conditions: for MTD (maximally tolerated dose): B6D2F female mice, ip qDX5; for ILS max (maximum increase in lifespan): mice bearing ip P388 leukemia, ip days 1-5 at MTD, slash-separated figures are separate experiments
Procedure: This tumor system is widely accepted as an antitumor agent screening tool because it is sensitive to virtually all of the clinically active antineoplastic agents; quantitative and reproducible; amenable for large-scale screening; and predictive for activity in other animal tumor models.
10^6 P388 leukemia cells are inoculated ip in B6D2F1 mice. Twenty-four hours later, if the tumor inoculum proves to be free of bacterial contamination (as determined by 24 hours incubation in thioglycollate broth), animals are randomized into groups of 6 and housed in shoebox cages. […] An equal volume of saline or water is added; if the drug comes out of solution an equal volume of Cremophor (polyethoxylated castor oil) is added and then saline or water, as to a concentration such that the desired dose is delivered in 0.5 ml. The final concentration of DMA, ethanol or Cremophor is 10 percent. Dilutions for lower doses are made with saline or water so that there is a decreasing proportion of organic solvents in the vehicle with decreasing dosage. […] Formulations are prepared immediately prior to injection. The Formula (I) and Formula (II) compounds are administered ip on Days 1 through 5 (i.e., treatment is initiated 24 hrs after tumor inoculation). Each experiment includes three groups of 6 animals as untreated controls and animals treated with a positive control, cisplatin, at two dose levels. Animals are weighed as a group on Days 1, 5 and 9 and average weight change (Δwt.) is used as a reflection of toxicity. Each experiment also includes an inoculum titration--groups of 8 mice inoculated ip with 10^5 to 10^0 P388 leukemia cells. The titration is used as a quality control check for the performance of the tumor model. Animals are monitored daily for mortality and experiments are terminated after 45 days. The endpoint is median survival time (MST) and increase in lifespan (ILS) which is the percentage of increase in MST relative to untreated controls.

[1] = tested on: M5076 reticulum cell sarcoma; assay: ip M5076 reticulum cell sarcoma in mice; type: in vivo, mice (B6D2F female)
Procedure: Another tumor model used for evaluation of tumor growth inhibiting drugs is intraperitoneally implanted M5076 reticulum cell sarcoma in mice. […] Drugs are administered ip. Daily treatment is begun 24 hours after implantation and is continued for ten days. The treatment regimen for M5076 is more prolonged than for P388 because of the slower growth rate and longer control survival time of the M5076 tumor. Compounds of Formula (I) and Formula (II) were evaluated in this assay. An evaluation of several compounds of Formula (I) in the M5076 reticulum cell sarcoma assay at their maximally tolerated dose (MTD) is set forth in Table III. An ILS of ≥25% indicates activity in this tumor model.
^(b) maximally tolerated dose for B6D2F female mice on an ip qDX10
^(c) maximum increase in lifespan produced in mice bearing ip M5076

B16 melanoma = assay: in vivo ip B16 melanoma assay; design: species or system mice (B6D2F1); conditions: ip qDX10; for MTD (maximally tolerated dose): B6D2F1 mice; for ILS (maximum increase in lifespan): mice bearing ip B16 melanoma, slash-separated figures are separate experiments
Procedure: Daily treatment is begun 24 hours after tumor implantation and is continued daily for ten (10) days. The route of drug administration is ip. The mice are monitored daily for survival for sixty (60) days. Antitumor activity is assessed by prolongation of median survival time. An ILS of ≥25% indicates activity in this tumor model.
^(b) maximally tolerated dose for B6D2F1 mice on an ip qDX10
^(c) maximum increase in lifespan produced in mice bearing ip B16

[2] = tested on: M5076 reticulum cell sarcoma; conditions: 2 mg/kg ip, qD × 10
Procedure: B6D2F female mice are inoculated sc in the flank with 0.5 ml of a 10% (w:v) brei of M5076 prepared from pooled sc tumors excised at about Day 21 from C57Bl/6 donors. Treatment is initiated one day after tumor implantation, and is continued daily for 10 days. Tumors are measured 21 days after tumor implantation activity is determined by the degree of tumor growth inhibition.

[3] = tested on: mammary adenocarcinoma 16/c; assay: sc mammary adenocarcinoma 16/c tumor model; type: in vivo, mice (C3H); conditions: for Inhibition: Day 21
Procedure: In this experiment, the tumor was implanted sc in C3H mice, and the drug was administered ip or iv on an intermittent treatment schedule, i.e., once on days 1, 5, 9, 13 and 17. Tumors were measured 3 weeks after implantation, and activity was assessed by degree of tumor growth inhibition.
*N.P. = Proportion of mice without palpable tumors on Day 21

[4] = solubility in 9:1 water:ethanol (HPLC of filtrate)
Procedure: (§1) Such solubility was determined as follows: The compound in question was dissolved or suspended in absolute ethanol (250 mg solid per 1.0 ml ethanol). To the resulting solution or suspension, water (9.0 times the volume of ethanol) was added. This suspension was stirred vigorously for 15 hours, then filtered through a 0.45 μm poly(tetrafluoroethylene) (PTFE) filter. […] The HPLC system was as follows:
(§2) Column PLRP-S, 5μm, obtained from Polymer Laboratories, Inc.
(§3) Mobile Phase 9:1 acetonitrile:0.1% tetra-n-butylammonium hydrogen sulfate (50° C., 1.0 ml-min-^-1)
Detection Ultraviolet (250 nm)

B16 melanoma cells = assay: B16 melanoma cell assay, clonogenic capacity in vitro after two-hour exposure; type: cell-based; conditions: 2-hour exposure; read-out: IC50: concentration which inhibits cloning efficiency of B16 melanoma cells by 50%
Procedure: The B16 melanoma cell assay measures the ability of a compound to inhibit the clonogenic capacity of cells in vitro following a two-hour exposure to the compound.
B16 melanoma (highly metastatic subline, F10) are used and maintained as monolayer cultures in Minimal Essential Media (Grand Island Biological Col., Grand Island, N.Y.) supplemented with 10% calf serum, 1% antibiotics in a 5% CO2 humidified incubator at 37° C. Asynchronous populations of cells are harvested and replated to 5000 cells/plate in sterile 60 mm×15 mm petri plates. Plates are incubated overnight to allow attachment of the cells to the plate. Cells are treated with a Formula (I) or Formula (II) compound/under sterile conditions, allowed to react for 2 hours followed by aspiration of medium. Plates are washed one time with 5 ml of phosphate buffered saline (PBS), followed by the addition of 5 ml of fresh medium. Plates are incubated for 5 days at 37° C. in a CO2 incubator. Viability is measured by the ability of a cell to form a colony of greater than 50 cells. Colonies are fixed with 0.5% crystal violet in 95% ethanol. Plates are dried and counted with a Biotran III Automatic Count Totalizer (New Brunswick Scientific Co., Edison, N.J.). Mean and standard deviation of triplicate samples are determined for each drug concentration. The data are analyzed plotting the log of the survival fraction (number of colonies in drug treated plates/number of colonies in controls) versus the drug concentration.
^a Concentration which inhibits cloning efficiency of B16 melanoma
cells by 50% on a 2hour exposure

[5] = tested on: HT-29 human colon carcinoma cells; assay: HT-29 human colon carcinoma cell killing in vitro; type: cell-based; conditions: 2-hour exposure
[6] = Struck et al., J. Med. Chem., 9, 414-416 (1966); cited from earlier work
[7] = 15 h
Procedure: as §1, §2, §3
Detection Ultraviolet (250 nm)

[8] = Experiment 1, ip, q4D × 5, 8 mg/kg
[9] = Experiment 2, ip, q4D × 5, 6 mg/kg
[10] = Experiment 2, iv, q4D × 5, 12 mg/kg
[11] = Experiment 3, ip, q4D × 5, 8 mg/kg

[Au+].[Cl-].c1ccc(P(CCP(c2ccccc2)c2ccccc2)c2ccccc2)cc1.c1ccc(P(CCP(c2ccccc2)c2ccccc2)c2ccccc2)cc1 [Compound No. 1, Bis[1,2-Bis(diphenylphosphino)ethane]Gold(I) Chloride]
MTD (maximally tolerated dose) (P388 leukemia): 2 mg/kg
ILS max (maximum increase in lifespan) (P388 leukemia): 83 ± 24%
MTD (maximally tolerated dose) ([1]; B6D2F female mice, ip qDX10): 2 mg/kg
ILS max (maximum increase in lifespan) ([1]; mice bearing ip M5076, ip qDX10 at MTD, slash-separated figures are separate experiments): 56% and 83% and 52% and 47% and 49%
MTD (maximally tolerated dose) (B16 melanoma): 2 mg/kg
ILS (maximum increase in lifespan) (B16 melanoma): 50% and 43% and 33% and 28% and 37%
% Inhibition of tumor growth (Day 21) [2]: 91% and 48%
N.P. (proportion of mice without palpable tumor on Day 21) [2]: 2/7 and 1/7
Mean Tumor Volume on Day 21 [3, 8]: 96 ± 143 mm^3
N.P. (proportion of mice without palpable tumors on Day 21) [3, 8]: 4/7
Inhibition [3, 8]: 92%
Mean Tumor Volume on Day 21 [3, 9]: 430 ± 291 mm^3
N.P. (proportion of mice without palpable tumors on Day 21) [3, 9]: 0/8
Inhibition [3, 9]: 61%
Mean Tumor Volume on Day 21 [3, 10]: 181 ± 163 mm^3
N.P. (proportion of mice without palpable tumors on Day 21) [3, 10]: 2/8
Inhibition [3, 10]: 84%
Mean Tumor Volume on Day 21 [3, 11]: 0 mm^3
N.P. (proportion of mice without palpable tumors on Day 21) [3, 11]: 5/5
Inhibition [3, 11]: 100%
solubility in 9:1 water:ethanol (in words) ([4]; 9:1 water:ethanol): true solution
Solubility in 9:1 Water:Ethanol ([4]; stirred 15 hours, 0.45 μm PTFE filter, HPLC): 0.17 mg/mL
solubility in water (in words) ([4]; water): forms a suspension in water
pIC50 (B16 melanoma cells): 5.35
effectively killed HT-29 cells following exposure to concentrations [5]: < 10 µM

c1ccc(P(CCP(c2ccccc2)c2ccccc2)c2ccccc2)cc1 [1,2-bis(diphenyl-phosphino)ethane]
cytotoxic activity (in words) [6]: cytotoxic activity

O=C([O-])C(O)CO.[Au+].c1ccc(P(CCP(c2ccccc2)c2ccccc2)c2ccccc2)cc1.c1ccc(P(CCP(c2ccccc2)c2ccccc2)c2ccccc2)cc1 [compound 25, Bis[1,2-bis(diphenylphosphino)ethane]gold(I) DL-2,3-dihydroxypropanoate]
MTD (maximally tolerated dose) (P388 leukemia): 2 mg/kg
ILS max (maximum increase in lifespan) (P388 leukemia): 55% and 65%
MTD (maximally tolerated dose) (B16 melanoma): 0.75 mg/kg
ILS (maximum increase in lifespan) (B16 melanoma): 28%
Solubility in 9:1 Water:Ethanol [7]: 2.2 mg/mL
